Source: article PMC5901408 (Pest Management Science, 2017)
Changes are numbered by the printed parent chain.

Columns and labels:
ZmEPSPS [1] = molecular target: T1, ZmEPSPS (Zea mays, UniProt A0A1D6NVZ6, P168A/T164I); assay: EPSPS enzyme activity assay, glyphosate titration; format: biochemical
T1 sequence (A0A1D6NVZ6 63-506 T164I/P168A): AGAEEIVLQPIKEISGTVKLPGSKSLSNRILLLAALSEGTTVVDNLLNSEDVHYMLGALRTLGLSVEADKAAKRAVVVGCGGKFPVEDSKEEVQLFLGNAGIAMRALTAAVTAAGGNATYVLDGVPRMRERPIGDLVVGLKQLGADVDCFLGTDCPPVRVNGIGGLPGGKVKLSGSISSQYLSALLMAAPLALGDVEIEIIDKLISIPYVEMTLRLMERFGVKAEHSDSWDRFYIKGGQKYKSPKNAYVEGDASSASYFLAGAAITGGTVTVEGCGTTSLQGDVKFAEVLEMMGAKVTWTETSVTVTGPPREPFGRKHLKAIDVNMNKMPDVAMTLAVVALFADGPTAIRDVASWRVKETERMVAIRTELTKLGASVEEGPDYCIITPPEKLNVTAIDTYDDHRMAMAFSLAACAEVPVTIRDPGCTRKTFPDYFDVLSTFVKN

ZmEPSPS [2] = molecular target: T2, ZmEPSPS (Zea mays, UniProt A0A1D6NVZ6); assay: EPSPS enzyme activity assay, glyphosate titration; format: biochemical
T2 sequence (A0A1D6NVZ6 63-506): T1 sequence (A0A1D6NVZ6 63-506 T164I/P168A) with I102T, A106P

## O=C(O)CNCP(=O)(O)O [glyphosate]
ZmEPSPS [1]
  IC50: 19.5 ± 2.8 mM
ZmEPSPS [2]
  IC50: 0.0139 ± 0.0035 mM
